Where a name gives a salt, the structure may show the parent alone. Read-outs that look alike come from different tables or passages of the source.
Tests used:
[1] = IR spectra of encapsulated compounds in stearic acid microspheres (degradation); type: physicochemical
Description: Bitter taste stimuli are prepared in a similar manner, except at a pH of 8.0. Along with stearic acid, SOA is melted at ˜100° C., quinine HCl·7H2O is melted at ˜165° C., quinine HCl·2H2O is melted at 116° C., or n-propylthiouracil (PROP) is melted at ˜150° C. before addition to a rapidly stirred buffer solution. […] The quinine content of microspheres is measured by fluorescence emission or by absorbance in the ultra-violet region. SOA content of microspheres is measured by the anthrone reaction, and PROP and PTC content of microspheres is measured by UV absorption at 275 nm.
After drying, loaded microspheres are dissolved in a solvent such as acetonitrile or acetonitrile/HEPES, and the encapsulated compound is assayed by absorption spectroscopy, fluorescence emission, or infra-red spectroscopy. The melting point is then measured in order to identify the melting point range of the microspheres. If needed, these lipid microspheres could be embedded within pullulan-based films for long term storage. Stearic acid microspheres encapsulate 2,4-D or DCMU (Diuron) at a weight-to-weight ratio of approximately 15:I. In addition, the melting point of lipid microspheres is lowered to 38-40° C. for the controlled release of these compounds from microspheres. The melting temperature range varies from 8 to 10° C.

sweet taste = conditions: cited from earlier work

Compound | degradation of components by IR spectra [1] | other results
CC(=O)OC[C@H]1O[C@@](COC(C)=O)(O[C@H]2O[C@H](COC(C)=O)[C@@H](OC(C)=O)[C@H](OC(C)=O)[C@H]2OC(C)=O)[C@@H](OC(C)=O)[C@@H]1OC(C)=O [SOA, sucrose octaacetate] | no components were graded | –
O=[N+]([O-])c1ccc(O)c([N+](=O)[O-])c1 [2,4-dinitrophenol] | – | degradation by IR data ([1]; after encapsulation within stearic acid microspheres): not degraded
C=C[C@H]1C[N@@]2CC[C@H]1C[C@H]2[C@H](O)c1ccnc2ccc(OC)cc12 [quinine, quinine HCl] | no components were graded | –
CN(C)C(=O)Nc1ccc(Cl)c(Cl)c1 [DCMU, diuron] | – | degradation by IR data [1]: undegraded
CCCc1cc(=O)[nH]c(=S)[nH]1 [PROP, n-propylthiouracil] | no components were graded | –
OC[C@H]1O[C@H](O[C@]2(CCl)O[C@H](CCl)[C@@H](O)[C@@H]2O)[C@H](O)[C@@H](O)[C@H]1Cl [sucralose] | no components were graded | sweetness compared with sucrose (sweet taste): approximately 600 times
